Measurements from patent US9738634B2, “Heterocyclic amide compound and herbicide” (SYNGENTA PARTICIPATIONS AG, priority 2013, dated 2017).

What was measured:
Format in all cases: in vivo
barnyard grass [1] = experiment: Test Example 1: weedkilling efficacy, preemergent weed treatment in the submerged state; A: barnyard grass; conditions: treatment dosage 252 g/ha
In short: (§1)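 Submerged pre-emergence treatment, water-surface application of compound emulsion at g/ha dosages; 4 cm flooded alluvial soil, weeds sown and 2.5-leaf rice transplanted same day. Rated after 3 weeks, greenhouse.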

bulrush [2] = experiment: Test Example 1: weedkilling efficacy, preemergent weed treatment in the submerged state; B: bulrush; conditions: treatment dosage 252 g/ha
In short: as §1

oval-leafed pondweed [3] = experiment: Test Example 1: weedkilling efficacy, preemergent weed treatment in the submerged state; C: oval-leafed pondweed; conditions: treatment dosage 252 g/ha
In short: as §1

transplanted rice = experiment: Test Example 1: preemergent weed treatment in the submerged state, effect on crop; a: transplanted rice; conditions: treatment dosage 252 g/ha
In short: as §1

barnyard grass [4] = experiment: Test Example 2: weedkilling efficacy, growth period weed treatment in the submerged state; A: barnyard grass; conditions: treatment dosage 252 g/ha
In short: (§2)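 Seedlings at 1-2 leaves in 4 cm-deep submerged alluvial soil received emulsion formulations on the water surface, dosed per hectare; effects were judged 3 weeks on.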

bulrush [5] = experiment: Test Example 2: weedkilling efficacy, growth period weed treatment in the submerged state; B: bulrush; conditions: treatment dosage 252 g/ha
In short: as §2

oval-leafed pondweed [6] = experiment: Test Example 2: weedkilling efficacy, growth period weed treatment in the submerged state; C: oval-leafed pondweed; conditions: treatment dosage 252 g/ha
In short: as §2

crabgrass [7] = experiment: Test Example 3: weedkilling efficacy through soil treatment; D: crabgrass; conditions: treatment dosage 315 g/ha
In short: (§3)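 Crop and weed responses were judged three weeks after a uniform surface spray of the water-diluted emulsion at the given g/ha rate. Seeds sat beneath about 1.5 cm of sterilized diluvial soil, and boxes stood in a greenhouse at 25 to 30° C.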

green foxtail [8] = experiment: Test Example 3: weedkilling efficacy through soil treatment; E: green foxtail; conditions: treatment dosage 315 g/ha
In short: as §3

wild oat = experiment: Test Example 3: weedkilling efficacy through soil treatment; G: wild oat; conditions: treatment dosage 315 g/ha
In short: as §3

black-grass [9] = experiment: Test Example 3: weedkilling efficacy through soil treatment; H: black-grass; conditions: treatment dosage 315 g/ha
In short: as §3

Italian ryegrass [10] = experiment: Test Example 3: weedkilling efficacy through soil treatment; I: Italian ryegrass; conditions: treatment dosage 315 g/ha
In short: as §3

Indian mallow [11] = experiment: Test Example 3: weedkilling efficacy through soil treatment; K: Indian mallow; conditions: treatment dosage 315 g/ha
In short: as §3

redroot pigweed [12] = experiment: Test Example 3: weedkilling efficacy through soil treatment; L: redroot pigweed; conditions: treatment dosage 315 g/ha
In short: as §3

fig-leafed goosefoot [13] = experiment: Test Example 3: weedkilling efficacy through soil treatment; M: fig-leafed goosefoot; conditions: treatment dosage 315 g/ha
In short: as §3

chickweed [14] = experiment: Test Example 3: weedkilling efficacy through soil treatment; N: chickweed; conditions: treatment dosage 315 g/ha
In short: as §3

birds-eye speedwell [15] = experiment: Test Example 3: weedkilling efficacy through soil treatment; p: birds-eye speedwell; conditions: treatment dosage 315 g/ha
In short: as §3

directly sown rice [16] = experiment: Test Example 3: soil treatment, effect on crop; b: directly sown rice; conditions: treatment dosage 315 g/ha
In short: as §3

corn [17] = experiment: Test Example 3: soil treatment, effect on crop; c: corn; conditions: treatment dosage 315 g/ha
In short: as §3

soybean [18] = experiment: Test Example 3: soil treatment, effect on crop; d: soybean; conditions: treatment dosage 315 g/ha
In short: as §3

wheat [19] = experiment: Test Example 3: soil treatment, effect on crop; e: wheat; conditions: treatment dosage 315 g/ha
In short: as §3

beet [20] = experiment: Test Example 3: soil treatment, effect on crop; f: beet; conditions: treatment dosage 315 g/ha
In short: as §3

crabgrass [21] = experiment: Test Example 4: weedkilling efficacy by foliar treatment; D: crabgrass; conditions: treatment dosage 315 g/ha
In short: (§4)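 Seeds are spot-sown into sterilized diluvial soil and covered with about 1.5 cm of soil. After 14 days' greenhouse growth at 25 to 30° C, plants are sprayed on stems and leaves with diluted emulsion at the stated g/ha rate, then scored at 3 weeks.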

green foxtail [22] = experiment: Test Example 4: weedkilling efficacy by foliar treatment; E: green foxtail; conditions: treatment dosage 315 g/ha
In short: as §4

black-grass [23] = experiment: Test Example 4: weedkilling efficacy by foliar treatment; H: black-grass; conditions: treatment dosage 315 g/ha
In short: as §4

Italian ryegrass [24] = experiment: Test Example 4: weedkilling efficacy by foliar treatment; I: Italian ryegrass; conditions: treatment dosage 315 g/ha
In short: as §4

Indian mallow [25] = experiment: Test Example 4: weedkilling efficacy by foliar treatment; K: Indian mallow; conditions: treatment dosage 315 g/ha
In short: as §4

redroot pigweed [26] = experiment: Test Example 4: weedkilling efficacy by foliar treatment; L: redroot pigweed; conditions: treatment dosage 315 g/ha
In short: as §4

fig-leafed goosefoot [27] = experiment: Test Example 4: weedkilling efficacy by foliar treatment; M: fig-leafed goosefoot; conditions: treatment dosage 315 g/ha
In short: as §4

chickweed [28] = experiment: Test Example 4: weedkilling efficacy by foliar treatment; N: chickweed; conditions: treatment dosage 315 g/ha
In short: as §4

catchweed = experiment: Test Example 4: weedkilling efficacy by foliar treatment; O: catchweed; conditions: treatment dosage 315 g/ha
In short: as §4

birds-eye speedwell [29] = experiment: Test Example 4: weedkilling efficacy by foliar treatment; p: birds-eye speedwell; conditions: treatment dosage 315 g/ha
In short: as §4

directly sown rice [30] = experiment: Test Example 4: foliar treatment, effect on crop; b: directly sown rice; conditions: treatment dosage 315 g/ha
In short: as §4

corn [31] = experiment: Test Example 4: foliar treatment, effect on crop; c: corn; conditions: treatment dosage 315 g/ha
In short: as §4

soybean [32] = experiment: Test Example 4: foliar treatment, effect on crop; d: soybean; conditions: treatment dosage 315 g/ha
In short: as §4

wheat [33] = experiment: Test Example 4: foliar treatment, effect on crop; e: wheat; conditions: treatment dosage 315 g/ha
In short: as §4

beet [34] = experiment: Test Example 4: foliar treatment, effect on crop; f: beet; conditions: treatment dosage 315 g/ha
In short: as §4

With `CC1=C(c2ccsc2)C(=O)N(C(C)(C)C(=O)Nc2nc(C)ns2)CO1` [B-1-01] the “A (barnyard grass) weedkilling efficacy grade” value (barnyard grass [1]) was 5 (weed kill ratio 90% or more, (practically complete withering)), the “B (bulrush) weedkilling efficacy grade” value (bulrush [2]) was 5 (weed kill ratio 90% or more, (practically complete withering)) and the “C (oval-leafed pondweed) weedkilling efficacy grade” value (oval-leafed pondweed [3]) was 5 (weed kill ratio 90% or more, (practically complete withering)). For the same compound, the “a (transplanted rice) effect on crop grade” value (transplanted rice) was 4 (weed kill ratio 70% or more, less than 90%), the “A (barnyard grass) weedkilling efficacy grade” value (barnyard grass [4]) was 5 (weed kill ratio 90% or more, (practically complete withering)) and the “B (bulrush) weedkilling efficacy grade” value (bulrush [5]) was 5 (weed kill ratio 90% or more, (practically complete withering)). For the same compound, the “C (oval-leafed pondweed) weedkilling efficacy grade” value (oval-leafed pondweed [6]) was 5 (weed kill ratio 90% or more, (practically complete withering)), the “D (crabgrass) weedkilling efficacy grade” value (crabgrass [7]) was 5 (weed kill ratio 90% or more, (practically complete withering)) and the “E (green foxtail) weedkilling efficacy grade” value (green foxtail [8]) was 5 (weed kill ratio 90% or more, (practically complete withering)). The “G (wild oat) weedkilling efficacy grade” value (wild oat) was 5 (weed kill ratio 90% or more, (practically complete withering)), the “H (black-grass) weedkilling efficacy grade” value (black-grass [9]) was 5 (weed kill ratio 90% or more, (practically complete withering)) and the “I (Italian ryegrass) weedkilling efficacy grade” value (Italian ryegrass [10]) was 5 (weed kill ratio 90% or more, (practically complete withering)). For the same compound, the “K (Indian mallow) weedkilling efficacy grade” value (Indian mallow [11]) was 3 (weed kill ratio 40% or more, less than 70%), the “L (redroot pigweed) weedkilling efficacy grade” value (redroot pigweed [12]) was 4 (weed kill ratio 70% or more, less than 90%) and the “M (fig-leafed goosefoot) weedkilling efficacy grade” value (fig-leafed goosefoot [13]) was 5 (weed kill ratio 90% or more, (practically complete withering)). The “N (chickweed) weedkilling efficacy grade” value (chickweed [14]) was 3 (weed kill ratio 40% or more, less than 70%), the “P (birds-eye speedwell) weedkilling efficacy grade” value (birds-eye speedwell [15]) was 5 (weed kill ratio 90% or more, (practically complete withering)) and the “b (directly sown rice) effect on crop grade” value (directly sown rice [16]) was 5 (weed kill ratio 90% or more, (practically complete withering)). For the same compound, the “c (corn) effect on crop grade” value (corn [17]) was 0 (weed kill ratio 5% or less (practically no effect)), the “d (soybean) effect on crop grade” value (soybean [18]) was 2 (weed kill ratio 20% or more, less than 40%) and the “e (wheat) effect on crop grade” value (wheat [19]) was 4 (weed kill ratio 70% or more, less than 90%). The “f (beet) effect on crop grade” value (beet [20]) was 3 (weed kill ratio 40% or more, less than 70%), the “D (crabgrass) weedkilling efficacy grade” value (crabgrass [21]) was 5 (weed kill ratio 90% or more, (practically complete withering)) and the “E (green foxtail) weedkilling efficacy grade” value (green foxtail [22]) was 5 (weed kill ratio 90% or more, (practically complete withering)). The “H (black-grass) weedkilling efficacy grade” value (black-grass [23]) was 5 (weed kill ratio 90% or more, (practically complete withering)), the “I (Italian ryegrass) weedkilling efficacy grade” value (Italian ryegrass [24]) was 5 (weed kill ratio 90% or more, (practically complete withering)) and the “K (Indian mallow) weedkilling efficacy grade” value (Indian mallow [25]) was 4 (weed kill ratio 70% or more, less than 90%). For the same compound, the “L (redroot pigweed) weedkilling efficacy grade” value (redroot pigweed [26]) was 5 (weed kill ratio 90% or more, (practically complete withering)), the “M (fig-leafed goosefoot) weedkilling efficacy grade” value (fig-leafed goosefoot [27]) was 5 (weed kill ratio 90% or more, (practically complete withering)) and the “N (chickweed) weedkilling efficacy grade” value (chickweed [28]) was 4 (weed kill ratio 70% or more, less than 90%). For the same compound, the “O (catchweed) weedkilling efficacy grade” value (catchweed) was 4 (weed kill ratio 70% or more, less than 90%), the “P (birds-eye speedwell) weedkilling efficacy grade” value (birds-eye speedwell [29]) was 4 (weed kill ratio 70% or more, less than 90%) and the “b (directly sown rice) effect on crop grade” value (directly sown rice [30]) was 5 (weed kill ratio 90% or more, (practically complete withering)). The “c (corn) effect on crop grade” value (corn [31]) was 4 (weed kill ratio 70% or more, less than 90%), the “d (soybean) effect on crop grade” value (soybean [32]) was 4 (weed kill ratio 70% or more, less than 90%) and the “e (wheat) effect on crop grade” value (wheat [33]) was 1 (weed kill ratio 5% or more, less than 20%). The “f (beet) effect on crop grade” value (beet [34]) was 4 (weed kill ratio 70% or more, less than 90%).
